Test results: US20210267944A1 (BioXcel Therapeutics, Inc., priority 2018, published 2021)
Structures can show the parent of a compound that is named as a salt.

Assay: clinical
Conditions: human, in vivo; for concentration at 15 min / concentration at 30 min / concentration at 90 min / concentration at 45 min / concentration at 60 min / concentration at 75 min: Plasma level concentration

## Cc1cccc([C@H](C)c2cnc[nH]2)c1C [dexmedetomidine hydrochloride]
  Cmax: 0.0225 to 0.406 ng/mL
Patient 1, Treatment, 15 min of infusion
  concentration at 15 min: 0.0225 ng/mL
Patient 1, Treatment
  concentration at 30 min: 0.0147 ng/mL
Patient 4, Treatment
  concentration at 90 min: 0.0443 ng/mL
Patient 11, Treatment, 15 min
  concentration at 15 min: 0.041 ng/mL
Patient 11, Treatment
  concentration at 30 min: 0.0629 ng/mL
  concentration at 45 min: 0.124 ng/mL
  concentration at 60 min: 0.15 ng/mL
Patient 12, Treatment
  concentration at 30 min: 0.0449 ng/mL
  concentration at 45 min: 0.0505 ng/mL
  concentration at 60 min: 0.109 ng/mL
  concentration at 75 min: 0.159 ng/mL
  concentration at 90 min: 0.238 ng/mL
Patient 14, Treatment
  concentration at 30 min: 0.0527 ng/mL
  concentration at 45 min: 0.0465 ng/mL
  concentration at 60 min: 0.406 ng/mL
Patient 16, Treatment, 15 min
  concentration at 15 min: 0.00256 ng/mL
Patient 16, Treatment
  concentration at 30 min: 0.0156 ng/mL
  concentration at 45 min: 0.0412 ng/mL
  concentration at 60 min: 0.0679 ng/mL
  concentration at 75 min: 0.0723 ng/mL
Patient 17, Treatment, 15 min
  concentration at 15 min: 0.0159 ng/mL
Patient 17, Treatment
  concentration at 45 min: 0.0399 ng/mL
Patient 18, Treatment, 15 min
  concentration at 15 min: 0.0484 ng/mL
Patient 18, Treatment
  concentration at 30 min: 0.0545 ng/mL
